Drawing on PubChem BioAssay (NCI), this text covers GI50 and TGI for four compounds.

Among the test systems are DU-145 prostate; HT29 colon; MCF7 breast; NCI-H460 lung; RXF 393 renal; SF-539 CNS; SK-OV-3 ovarian; SN12C renal; U251 CNS; UACC-257 melanoma.
What all share (assay): DTP human tumour cell line panel, 48 h

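96-well plates; 48 h exposure; 5 concentrations. Endpoints by linear interpolation between flanking doses. Not reached: highest tested concentration assigned. The concentration for 50% growth inhibition is given as GI50. TGI: total growth inhibition.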 Where only a bound is given, the exact number is not on record here.

The term GI50 denotes the concentration that inhibits growth by half. In general, TGI refers to the concentration at which net growth stops. A higher TGI goes with lower sensitivity of the cells. With `COc1cc(N2CCC(N3CCN(C)CC3)CC2)ccc1Nc1ncnc(Nc2ccccc2S(=O)(=O)C(C)C)n1`, the GI50 in the experiment on DU-145 prostate is 5.32 µM; in the experiment on HT29 colon, 1.93 µM; with MCF7 breast it was 2.36 µM; in the experiment on NCI-H460 lung, 7.24 µM; with RXF 393 renal it was 3.42 µM; in the experiment on SF-539 CNS, 3.46 µM. Besides, the GI50 was 5.18 µM in the experiment with SK-OV-3 ovarian, 2.89 µM in the experiment with SN12C renal, 4.34 µM in the experiment on U251 CNS and 8.42 µM with UACC-257 melanoma. The TGI was found to be 20.9 µM in the experiment with DU-145 prostate; 7.25 µM in the experiment on HT29 colon; 23.5 µM with MCF7 breast; 25.6 µM in the experiment on NCI-H460 lung; 17.3 µM in the experiment on RXF 393 renal; 14.6 µM in the experiment on SF-539 CNS. For the same compound, the TGI in the experiment with SK-OV-3 ovarian worked out at 30.5 µM; with SN12C renal it was 29.8 µM; with U251 CNS, 19.1 µM; in the experiment on UACC-257 melanoma it was 27.3 µM.
On to `COc1ccc(NC([Se])=NC23CC4CC(CC(C4)C2)C3)cc1`, for which the GI50 with DU-145 prostate was 3.13 µM; in the experiment on HT29 colon it was 2.64 µM; with MCF7 breast, 1.57 µM; with NCI-H460 lung, 1.98 µM; with RXF 393 renal, 1.8 µM; with SF-539 CNS it was 1.89 µM. Further, the GI50 was 2.45 µM with SK-OV-3 ovarian, 1.61 µM in the experiment with SN12C renal, 1.27 µM in the experiment with U251 CNS and 2.03 µM in the experiment with UACC-257 melanoma. The TGI was 11.2 µM in the experiment with DU-145 prostate; 15 µM in the experiment with HT29 colon; 9.4 µM in the experiment with MCF7 breast; 10.7 µM in the experiment with NCI-H460 lung; 4.72 µM in the experiment with RXF 393 renal; 4.19 µM with SF-539 CNS. Also, the TGI is 7.43 µM in the experiment on SK-OV-3 ovarian, 8.81 µM in the experiment on SN12C renal, 4.91 µM in the experiment on U251 CNS and 5.44 µM in the experiment on UACC-257 melanoma.
As to `O=C1c2ccccc2-c2oc(=O)c3ccccc3c21`, the TGI with DU-145 prostate, with HT29 colon, in the experiment on MCF7 breast, in the experiment with NCI-H460 lung, with RXF 393 renal and with SF-539 CNS was above 100 µM throughout. For the same compound, the TGI with SK-OV-3 ovarian, with SN12C renal, in the experiment on U251 CNS and in the experiment on UACC-257 melanoma was above 100 µM throughout.
Turning to `O=c1ccs[nH]1`, the TGI in the experiment on DU-145 prostate was above 91.3 µM; in the experiment with HT29 colon, 34.4 µM; in the experiment on MCF7 breast, 38.7 µM; in the experiment with NCI-H460 lung, 34.3 µM; in the experiment with RXF 393 renal, 21 µM; with SF-539 CNS it was 18.3 µM. For the same compound, the TGI with SK-OV-3 ovarian worked out at 72.5 µM; with SN12C renal, 28.3 µM; in the experiment with U251 CNS, 21.4 µM; in the experiment with UACC-257 melanoma, 33.2 µM.
